Test results as given in patent US20040120938A1, “Ingestible compositions comprising antibacterial agents” (The University of Bath, priority 1998, published 2004).
Where two headings read alike, the source gives them in different places.

Assays:
[1] = tested on: nitric oxide (NO) release; assay: NO release from formula feeds with nitrite and NADH (Test 7); format: biochemical; conditions: inhibitor 100 μM
Procedure: (§1) The production of nitric oxide in the following tests and examples was analysed using an ozone chemiluminescence assay in a continuous flow apparatus (Sievers NOA 280) that allows the real time analysis of NO production. The apparatus was modified to allow a constant stream of nitrogen to flow into the reaction chamber. Chemiluminescence data were collected by a data acquisition system; the mean NO produced in parts per billion (ppb) was calculated from readings taken every second and shown as ppb or mV.
(§2) Progress curves, of molar production of NO against time, were calculated by taking into account the gas flow and the mean level of NO. Molar production of NO was expressed as ppb/sec or mV/sec. Reactions were carried out in a final volume of 1 ml at 37° C. in an atmosphere of <1% oxygen (Stathkelvin combination needle oxygen electrode, Diamond General Corp.).
(§3) To the “substrates” bijou, 200 μl of 100 mM stock sodium nitrite was added together with 200 μl of the 5 mM reduced NADH to give an assay concentration of 20 mM nitrite and 1 mM reduced NADH.
(§4) To the “milk” bijou were added 600 μl of milk sample to give an assay volume of 1 ml.
(f) At t=5 minutes, the contents of the “milk” bijou were injected into the reaction cell using a 1 ml syringe and the release of NO was monitored for a further 20 minutes. […]

[2] = biological target: T1, bovine xanthine oxidase (XOR) (Bos taurus, UniProt P80457); assay: NO release by XOR with known XOR inhibitors (Test 4); format: biochemical; conditions: inhibitor 100 μM in the XOR/nitrite/NADH assay of Test 1
T1 construct: purchased Biozyme, Blaenavon, UK batch 104AX
Procedure: Bovine xanthine oxidase was diluted with PBS as indicated in Table 1 below to give 300 μl of enzyme mixture. The enzyme mixture (300 μl) was mixed with 700 μl of a substrate mixture to give an assay volume of 1 ml. The substrate mixture comprised nitrite which was added to the assay to give a concentration of 1 mM and NADH which was added to give a concentration of 0.3 mM. Where, for example in Tests 2 to 4 below, additional components are added to the sample, the amount of PBS is adjusted accordingly to give an assay volume of 1 ml. The sample was placed in the reaction vessel of the NO determination apparatus under a nitrogen atmosphere and the generation of NO was measured and the results calculated as a steady state rate in mV/s. […] Two different inhibitors were used. Oxypurinol was used at a concentration of 100 μM. Oxypurinol is a molybdenum site-specific inhibitor. Diphenyliodonium (DPI) was used at a concentration of 100 μM. DPI is a FAD site inhibitor.

[3] = tested on: nitric oxide (NO) release; assay: NO release from full fat milk with nitrite and NADH under hypoxia (Test 5); format: biochemical; conditions: inhibitor 100 μM; for inhibition of the increased NO release of milk gone off at 4° C.: milk kept at 4° C. more than 3 days
Procedure: as §1, §2, §3, §4
(f) At t=5 minutes, the contents of the “milk” bijou were injected into the reaction cell using a 1 ml syringe and the release of NO was monitored for a further 20 minutes. The set up was such that the reaction cell was a sealed system having an inlet gas flow of 200 ml/min and a sample extraction flow to the NOA-280 of 200 ml/min. The steady-state generation of NO (which corresponded to a plateau region on the trace of the NO production) was noted to give the mV/s release of NO from the 1 ml assay volume.
Full fat milk was assayed with 20 mM nitrite and 1 mM NADH as described above in Test 1. […] 600 μl of milk was used in each test giving a protein content in each assay of 20.4 mg.
The milk was taken and divided into two halves. One was kept at 4° C., and the other at −20° C. Samples of the milk were taken over several days and the generation of NO was investigated using the method described above.

Micrococcus sp = conditions: read-out: Half maximal concentration H2O2, bolus at beginning of logarithmic growth
Procedure: (§5) Bacteria were seeded into nutrient broth (NB) and grown over night at 37° C. The culture was then counted and normalised to give a final cell concentration of 1.8×10^7 cells well^−1 into the wells of a 96 well plate in fresh nutrient broth. The optical density of each well was monitored every 15 minutes as a measure of the growth rate of each bacterial species. Growth curves were generated for each species and the maximal rate of growth (logarithmic phase) was measured. Cells were treated to a range of experimental conditions in which the growth rate of cells was related to a control of untreated cells. The results were expressed as a percentage of the growth rate of the control cells.
(§6) (iv) The effect of XO hypoxanthine addition was measured on the growth rate of a range of bacterial species with 30 […] XO at varying hypoxanthine concentrations using cells seeded as described above.

Bacillus sp = conditions: read-out: Half maximal concentration H2O2, bolus at beginning of logarithmic growth
Procedure: as §5, §6

[4] = tested on: Staphylococcus aureus 6751; assay: Bacterial growth rate by optical density, 96 well plate (Tests 8(f), 8(g)); format: cell-based
Procedure: as §5
(§7) (i) At a fixed concentration of hypoxanthine (100 μM) a range of purified XO protein concentrations were added at time 0 minutes. The optical density was followed and the growth rate calculated.
(§8) (ii) The growth rate was also measured in relation to the concentration of hypoxanthine, using 30 μg of XO with cells seeded as described above.
as §6

Lactobacillus casei 6375 = assay: as above; format: cell-based
Procedure: as §5, §7, §8, §6

[5] = tested on: bacteria in pasteurised semi skimmed milk; conditions: 100 μM in pasteurised semi skimmed milk, 4-8° C., 8 days
Procedure: Pasteurised semi skimmed milk 1 ml was aliquoted into 7 sterile plastic bijou bottles comprising control and treated hypoxanthine (Hxan) groups. […] The samples were stored refrigerated at 4-8° C. until required on a specific day when a control and treated sample was incubated at 37° C. for 30 minutes. A 100 μl aliquot was taken from each sample and spread onto nutrient agar which was then incubated over night at 37° C. The total number of colonies formed regardless of type was counted and expressed for each treatment as the colony forming units per ml of the original test sample (CFU ml^−1).

Staphylococcus aureus = assay: Incubation of Staphylococcus aureus with SIN-1, growth; format: cell-based; conditions: in dependence on the amount added
Procedure: Cells cultured as described above were diluted to suitable working concentrations (10^4-10^5 Cells Ml^−1) in sterile phosphate buffered saline (PBS). […] Aliquots were taken from the cell cultures and plated on to nutrient agar and incubated in a warm room at 37° C. overnight. Viable cells formed colonies on the agar and were counted. The number of colonies formed was related to an untreated control and a graph of the results is shown in FIG. 1, which illustrates the effect of ONOO^− on cell viability.

superoxide = assay: Measurable NO in the XO/hypoxanthine system with superoxide dismutase; format: biochemical; conditions: added to the Xo/hypoxanthine system; oxygen 0 to 2%

T1 sequence (P80457 whole entry): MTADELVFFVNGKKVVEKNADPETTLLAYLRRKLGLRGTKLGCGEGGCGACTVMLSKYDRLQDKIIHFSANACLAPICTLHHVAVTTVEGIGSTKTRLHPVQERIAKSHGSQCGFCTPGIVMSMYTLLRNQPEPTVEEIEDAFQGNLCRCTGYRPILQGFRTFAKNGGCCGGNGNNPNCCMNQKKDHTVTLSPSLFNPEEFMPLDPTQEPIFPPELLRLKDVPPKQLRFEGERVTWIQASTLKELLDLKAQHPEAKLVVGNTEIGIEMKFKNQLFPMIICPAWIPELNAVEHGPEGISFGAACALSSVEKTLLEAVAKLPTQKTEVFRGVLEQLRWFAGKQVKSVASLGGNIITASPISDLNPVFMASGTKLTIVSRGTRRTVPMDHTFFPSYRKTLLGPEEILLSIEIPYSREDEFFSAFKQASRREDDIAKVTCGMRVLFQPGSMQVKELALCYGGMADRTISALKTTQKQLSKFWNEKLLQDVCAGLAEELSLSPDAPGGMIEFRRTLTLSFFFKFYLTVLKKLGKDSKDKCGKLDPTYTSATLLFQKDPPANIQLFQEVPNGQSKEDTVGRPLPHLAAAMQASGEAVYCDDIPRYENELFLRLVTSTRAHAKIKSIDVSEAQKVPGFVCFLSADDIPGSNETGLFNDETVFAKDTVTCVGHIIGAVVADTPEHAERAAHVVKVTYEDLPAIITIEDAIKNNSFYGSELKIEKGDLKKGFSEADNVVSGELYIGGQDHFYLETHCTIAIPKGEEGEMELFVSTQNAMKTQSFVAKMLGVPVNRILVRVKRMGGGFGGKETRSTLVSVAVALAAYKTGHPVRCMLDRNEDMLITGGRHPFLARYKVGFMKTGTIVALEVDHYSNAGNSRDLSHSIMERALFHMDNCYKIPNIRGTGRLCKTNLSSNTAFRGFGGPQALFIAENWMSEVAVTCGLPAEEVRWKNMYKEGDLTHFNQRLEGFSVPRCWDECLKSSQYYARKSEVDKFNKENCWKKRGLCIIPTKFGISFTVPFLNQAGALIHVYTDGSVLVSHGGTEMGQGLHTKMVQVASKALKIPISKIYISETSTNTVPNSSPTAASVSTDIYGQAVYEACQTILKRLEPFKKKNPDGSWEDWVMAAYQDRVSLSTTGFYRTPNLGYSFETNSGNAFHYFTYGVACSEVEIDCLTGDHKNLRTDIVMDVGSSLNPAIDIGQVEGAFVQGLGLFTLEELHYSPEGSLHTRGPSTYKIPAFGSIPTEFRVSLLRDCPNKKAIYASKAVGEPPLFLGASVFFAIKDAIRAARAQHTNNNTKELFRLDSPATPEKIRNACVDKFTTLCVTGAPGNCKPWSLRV

`c1ccc([I+]c2ccccc2)cc1` [DPI, Diphenyliodonium] was tested, and the “inhibition of NO release of 7 days old Cow and Gate formula” value [1] was “not inhibited”, the NO release [2] was 0.00 mV/s and the “NO generation of fresh full fat milk with inhibitor” value [3] was “no detectable NO generation”. For the same compound, the “inhibition of the increased NO release of milk gone off at 4° C.” value [3] was “not inhibited”.
`OO` [H2O2, hydrogen peroxide] was tested, and the IC50 (Micrococcus sp) was 19.5 µM, the IC50 (Bacillus sp) was 77.6 µM and the growth inhibition ([4]; S. aureus, 50% growth reduction not observed at the concentration ranges used) was “very limited”. It also gave an IC50 (Lactobacillus casei 6375; read-out: Half maximal concentration H2O2, Lactobacillus casei, bolus at beginning of logarithmic growth) of 305 µM.
With `O=c1[nH]cnc2nc[nH]c12` [Hypoxanthine, hypoxanthine] the “total number of colonies formed (CFU ml^−1)” value [5] was “reduce the total number of colonies formed”, the growth rate ([4]; Staphylococcus, in the presence of 30 μg XO) was “reduced the growth rate” and the IC50 (Lactobacillus casei 6375; Lacticaseibacillus casei, 6375, Lactobacillus, at 30 μg XO, read-out: half maximal hypoxanthine dose) was 104 µM.
For `O=c1[nH]c(=O)c2c[nH]nc2[nH]1` [Oxypurinol], the “inhibition of NO release of 7 days old Cow and Gate formula” value [1] was “not inhibited”, the “effect on XO/hypoxanthine growth inhibition” value (Lactobacillus casei 6375; 30 μg XO and 200 μM hypoxanthine, range of concentrations) was “reduce the effect of XO/hypoxanthine growth inhibition in a dose dependent manner” and the “growth rate of Lactobacillus, added alone” value (Lactobacillus casei 6375; highest concentration, alone) was “no effect”. The NO release [2] was 0.00 mV/s, the “NO generation of fresh full fat milk with inhibitor” value [3] was “no detectable NO generation” and the “inhibition of the increased NO release of milk gone off at 4° C.” value [3] was “not inhibited”.
In the case of `N=c1c[n+](N2CCOCC2)[n-]o1` [SIN-1, 3-morpholinosydnonimine], the “growth of Staphylococcus aureus” value (Staphylococcus aureus) is reported as “reduced growth”.
superoxide dismutase was tested, and the “amount of measurable NO” value (superoxide) was “increase the amount of measurable NO”.
